Laboratory results: US20090062309A1, “Therapeutic compositions for the treatment of cardiovascular diseases and methods for use therefor” (priority 2007, published 2009)

Columns and labels:
[1] = test system: subjects with CHD having decreased RBC K content; assay type: in vivo, human
Description: Subjects were evaluated by clinical angina (CCS angina Class II-IV), dyspnea, or arrhythmia.
Exclusion Criteria: Evidence of acute coronary syndrome, AMI, stroke or cardiac arrhythmias; NYHA class III-IV of heart failure, hyperkalemia. Informed consent was obtained in all. Other non CHD causes of chest pain, dyspnea, and arrhythmia had been ruled out.
In addition to that, a single dose of calcium gluconolactate (1 g/daily) was given to all subjects having plasma ionized ICa^2+ ≦1.1 mmol/L, while other Laboratory correction and drug assessment were conducted across the first 3-month period (Table 1) Safety control (ECG, Ion Transport Laboratory, BIA, Non-Invasive Hemodynamic) was obtained at 1, 3 and 6 months and 1 year. Clinical control was obtained weekly in the first month or as needed for physician or patient symptoms; thereafter a 3, 6 and 12 months.
The subjects were taken off any drug that might impair RBC transport, such as digitalis, β-blockers, or NSAID's, in subjects with RBC K^+ ≦90.2 mmol/L cell. Oral calcium gluconolactate (1 g/daily) was administered in all subjects with plasma ionized calcium ≦1.1 mmol/L. Subjects had correction of other plasma electrolyte abnormalities. The subjects were taken off any drug that may affect ventricular repolarization, as digoxin, calcium channel blockers (CCB), diuretics, β-blockers, or the like. […] Anti-aggregants or aspirin in subjects free of angina were discontinued after the 3rd month of treatment.
All subjects underwent: a) Serial ECG for LVH by Cornell or Sokolow-Lyon Criteria (QRS duration times Cornell voltage: R aVL+SV3, with 6 mm [added in women >2440 mm×ms], or Sokolow-Lyon voltage: [SV1+RV5/V6] >38 mm; along with LV strain pattern (classical ST-segment depressed, with inverted T-waves), or LVH voltage criteria with mild LV strain pattern (isoelectric, biphasic or non-symmetrical negative T-waves, without ST-segment depression), and ECG criteria for infarction and/or ischemia (Q-waves from previous AMI, decreased R-wave height, non-progressive R-wave voltages in precordial leads, ST-segment elevation […] often referred as injury current, ST-segment depression ≧[…] often downsloping from the J point, rectification of the ST segment, and isoelectric, biphasic, negative or inverted T-wave), intraventricular conduction disturbance, and arrhythmias); b) Non-invasive hemodynamic study (DP200M) for cardiac parameters (LV Ejection Time (LVET), LV dP/dT (LV delta pressure-time), Cardiac output and index (CO, Cl), Stroke Volume (SV), Pulse Wave Analysis (PWA) of Central Aortic Blood Pressure (BP), Aortic Systolic (SBP), Diastolic (DBP) and mean (m) BP, Aortic augmentation index; inflection point and reflected wave analysis, Systemic Vascular Resistance and Compliance (SVR/SVC), and Brachial Artery Distensibility (BAD), Brachial Artery Compliance (BAC); c) Ion Transport Studies for RBC (K^+, Na^+) plasma (K^+, Na^+, Cl^−, ICa^2+, Mg^2+), and 12-hours night urinary volume (K^+, Na^+, Cl^−, pH), d) Bio-Impedance Analysis (BIA, Quantum X, RJL Systems, MI, USA) for Total body Potassium, Total body water/Extracellular Water, Fat Mass (FM) and Fat-Free Mass (FFM) and e) Echocardiography was obtained at entry, 6 and 12 months periods.

cell K uptake by RBC = assay: long-term assay from our laboratory: cell K uptake by RBC (results not shown)
[2] = cited from earlier work
[3] = test system: subjects with stable chronic angina
Description: A double blind placebo-controlled, randomized trial was conducted in 25 subjects with stable chronic angina. […] All of the subjects were evaluated before and after the double-blind trial, thereby measuring a subject's angina clinical score (CCS Angina Class), ECG, and exercise tolerance as assessed by the Duke Treadmill Score (DTS). Methods for using the DTS with patients in need of coronary intervention and its acceptance as an accurate predictor of cardiac morbidity and mortality in CHD and CAD patients has been well established. See for example Azeem T., et al., Int J. Clin. Pract. (2001), 55(1):10-13. […] Participants' clinical and cardiac parameters were evaluated either monthly, quarterly, half yearly and yearly.

[4] = 1-month trial, Amiloride 5 mg/d, N=14
[5] = 1-month, Amiloride 5 mg/d, N=14

Cl.NC(N)=NC(=O)c1nc(Cl)c(N)nc1N.O.O [Amiloride, 3,5-diamino-6-chloro-N-(diaminomethylene) pyrazinecarboxamide monohydrochloride, dihydrate]
RBC K ([1]; 1st month, baseline 84.5±4, p<0.001): 93.5±4 mmol/L cell | cardiovascular events or death ([1]; 2 years of follow-up): 0% | RBC K+ ([1]; 3rd month): remained improved | subjects with improved ST-segment depression or elevation and isoelectric, biphasic or inverted T-wave ([1]; 3rd month, CHD subjects, no nitrates, lower anti-aggregants or aspirin): 74% | LV Strain pattern ([1]; 3rd month, hypertensives): improved or almost reversed | LVH voltage criteria ([1]; 3rd month, hypertensives, p<0.001): significantly decreased | normotensive subjects with marked improved ST-segment depression or elevation and inverted T-waves ([1]; 6th month, 3 out 4): 75% | hypertensives subjects with improved LV Strain pattern ([1]; 6th month, about 4 out of 5): ~80% | ECG-LVH voltage, Sokolow-Lyon criteria ([1]; 6th month, baseline 29.3±5.2, p=0.001): 25.1±3.2 mm | ECG-LVH voltage, Cornell ([1]; 6th month, baseline 2577±509, p<0.02): 2353±254 mm×ms | subjects with previous inferior infarction whose ECGs remained unchanged for Q-waves ([1]; 6th month, these subjects were free of angina): 15% | QTc interval ([1]; human, in vivo): prolonged | hyperkalemia ([1]; human, in vivo): never observed | SVC (Systemic Vascular Compliance) ([1]; hypertensives, 1st month, baseline 0.92±0.16, p<0.003): 1.22±0.21 ml/mmHg | LV dP/dT ([1]; hypertensives, 1st month, baseline 1757±313, p<0.001): 1302±276 mmHg/s | BA Compliance ([1]; hypertensives, 1st month, baseline printed 0.57±0.021, p<0.005): 0.069±0.02 ml/mmHg | angina, single subject FIG. 7B ([1]; normotensive diabetic, after 5 months of Amiloride and calcium treatment): angina reversed | ECG change, single subject FIG. 3C ([1]; normotensive person, bypass surgery, infarction, instable angina, 6-months Amiloride and calcium): reversion of T-wave alterations | angina, single subject FIG. 7A ([1]; person, angina, diabetes, hypertension, after 4 months of Amiloride treatment): the angina reversed | clinical change, single subject FIG. 5B ([1]; person, hypertension, LVH, 3-months Amiloride, antihypertensive and vasodilators drugs): reversion of clinical symptoms of exertional angina, and palpitations | clinical change, single subject FIG. 4B ([1]; person, hypertension, infarction, heart failure, 2 months after addition of Amiloride and calcium gluconolactate): clinical improvement of angina (3 weeks), heart failure and hypertension | angina, single subject FIG. 6B ([1]; person, hypertension, post-infarction angina, Amiloride treatment): rapid reversion of angina (7 days) | ECG T-waves, single subject FIG. 4B ([1]; person, 2 months after addition of Amiloride and calcium gluconolactate): T-waves were improved | ECG T-wave, single subject FIG. 6B ([1]; person, after 5-months of Amiloride treatment): reversion of T-wave inversion | free of angina and symptoms of heart failure ([1]; within 1st month, Amiloride 5 mg/daily (calcium gluconolactate 1 g/daily if plasma ICa2+ ≦1.1 mmol/L), 75 CHD subjects): all subjects were free of angina and symptoms of heart failure | hereditable defect in cell K uptake by RBC (cell K uptake by RBC): reverses a hereditable defect in cell K uptake by RBC | hyperkalemia as secondary effect ([2]; as disclosed in various medical textbooks): hyperkalemia is a common secondary effect | hyperkalemia ([2]; intravenous doses of Amiloride (1 mg/Kg), subjects with chronic kidney disease, Levy Y. et al. 2008): absence of hyperkalemia | excretion ([2]; upon ingestion, humans): excreted from the kidneys unchanged | Double-Product [3, 4]: 25700 ± 4633 | Peak Exercise BP, diastolic [3, 4]: 94 ± 10 | Peak Exercise BP, systolic [3, 4]: 177 ± 19 | Peak Exercise HR [3, 4]: 144 ± 19 | Exercise Time ([3]; 1-month trial, Amiloride 5 mg/d, N=14, P<0.05 vs placebo): 7.95 ± 2.8 min | High Risk Value: Subjects (%) [3, 5]: 35.7% | Low Risk Value: Subjects (%) [3, 5]: 64.3% | subjects with improved ST-T alterations of ischemia ([3]; 4 weeks, Amiloride 5 mg daily, 9 out of 14): 64% | subjects free of angina ([3]; 4 weeks, Amiloride 5 mg daily, Twelve out of 14 subjects): 71% | adverse episodes of cardiac arrhythmia ([3]; 4 weeks, Amiloride 5 mg daily, exercise treadmill test): without any adverse episodes of cardiac arrhythmia | 1-Month DTS (Duke Treadmill Score) ([3]; Amiloride 5 mg/d, N=14, Baseline DTS −2.28 ± 7.0): 7.90 ± 4.2 | High Risk Value (DTS), changes from baseline to 1-month ([3]; Amiloride 5 mg/d, high risk subjects): *−3 ± −2.6 | Low Risk Value (DTS), changes from baseline to 1-month ([3]; Amiloride 5 mg/d, low risk subjects): *8.6 ± 2.3
